From PMC5787524, “Discovery of a FLT3 inhibitor LDD1937 as an anti-leukemic agent for acute myeloid leukemia” (Oncotarget, 2017)
Several values for one entry are separate records, joined by “and”; a condition that tells them apart may be missing. Identical values can stand only once. Like-named read-outs stand apart in the source and are kept apart here.

Experiments:
FLT3 = target: T1, FLT3 (Homo sapiens, UniProt P36888); test: In vitro FLT3 kinase assay (HTRF); format: biochemical
T1 construct: Recombinant proteins containing the FLT3 kinase domain were purchased from Carna biosciences (Japan); purchased Carna biosciences (Japan)
T1 sequence (P36888 610-943 limits assumed): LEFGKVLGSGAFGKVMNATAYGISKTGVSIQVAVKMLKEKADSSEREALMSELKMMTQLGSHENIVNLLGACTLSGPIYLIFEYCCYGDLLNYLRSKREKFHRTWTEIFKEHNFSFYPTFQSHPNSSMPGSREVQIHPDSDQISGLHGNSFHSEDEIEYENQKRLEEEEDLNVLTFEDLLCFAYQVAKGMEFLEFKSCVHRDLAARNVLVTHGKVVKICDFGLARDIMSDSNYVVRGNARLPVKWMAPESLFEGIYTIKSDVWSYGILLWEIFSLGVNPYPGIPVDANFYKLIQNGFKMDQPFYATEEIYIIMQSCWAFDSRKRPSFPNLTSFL
Procedure: The inhibition of the FLT3 kinase activity was measured with homogeneous, time-resolved fluorescence (HTRF) assays. Recombinant proteins containing the FLT3 kinase domain were purchased from Carna biosciences (Japan). Optimal enzyme, ATP, and substrate concentrations were established with the HTRF KinEASE kit (Cisbio, France) according to the manufacturer’s instructions. The FLT3 enzymes were mixed with serially diluted compounds and peptide substrates in a kinase reaction buffer (50 mM HEPES (pH 7.0), 500 μM ATP, 0.1 mM sodium orthovanadate, 5 mM MgCl2, 1 mM DTT, 0.01% bovine serum albumin (BSA), and 0.02% NaN3). After the addition of the reagents for detection, the TR-FRET signal was measured with a Victor multilabel reader (Perkin Elmer, Waltham, MA, USA). […] JAK2, JAK3, cMET, and RET in vitro kinase assays were also carried out using the HTRF assay kit.

PC-3 cells = test: Cell viability / growth inhibition (EZ-Cytox), PC-3; format: cell-based; settings: Homo sapiens, Table 2, 72 h
Procedure: MV-4-11 human acute myeloid leukemia cells were purchased from the American Type Culture Collection (ATCC, Rockville, MD, USA, CRL-9591), and the cells were cultured in IMDM medium (Sigma Co., St. Louis, MO, USA) supplemented with 10% fetal bovine serum, 1% penicillin/streptomycin and 4 mM L-glutamine (Life Technology, Grand Island, NY). Jurkat (human acute T lymphocytic leukemia, ATCC TIB-152) and K562 (human chronic myelogenous leukemia, ATCC CCL-243) cells were cultured in RPMI-1640 (Sigma Co.), and MCF7 (human breast adenocarcinoma, ATCC HTB-22) and PC-3 (human prostate adenocarcinoma, ATCC CRL-1435) cells were cultured in DMEM (Sigma Co.) medium supplemented with 10% fetal bovine serum and 1% penicillin/streptomycin. The cultured cells were incubated at 37°C with 5% CO2. Cell viability was assessed with a tetrazolium-based assay using the EZ-Cytox Cell Viability Assay kit (DaeilLab, Korea). Briefly, 2,000 ∼ 15,000 cells were plated in 96-well flat bottom plates in 100 µl of medium. The next day, the cells were treated with compounds along with dimethyl sulfoxide (DMSO, Fisher, Waltham, MA, USA) as a negative control. […] After incubation, the optical density (OD) was measured at a wavelength of 450 nm with a Victor multilabel reader (Perkin Elmer, Waltham, MA, USA). The IC50 was calculated with nonlinear regression using Prism version 5.01 (GraphPad, La Jolla, CA, USA).

[1] = Pharmacokinetics in mice (intravenous and oral); format: in vivo, ICR mice; settings: for AUC: read-out: AUC (converted); for half-life: read-out: Terminal half-life
Procedure: The protocols for the animal studies were approved by the Institute of Laboratory Animal Resources of Dongguk University, Seoul, South Korea (IACUC-2015-055-1). Five-week-old male Imprinting Control Region (ICR) mice were purchased from the Charles River Company Korea (Orient, Seoul, South Korea). Upon arrival, the animals were randomized and housed four per cage under strictly controlled environmental conditions (22-25°C and 48-52% relative humidity) with a 12 h light/dark cycle at an intensity of 150 to 300 Lux. All mice were provided food and water ad libitum and were then maintained during this study. In the intravenous study of LDD1937, 10 mg/kg of LDD1937 (dissolved in distilled water at a concentration of 2 mg/ml) were intravenously injected into the mice through the tail vein. A blood sample of approximately 0.12 ml was collected by cardiac puncture. Additionally, in the oral study of LDD1937, 10 mg/kg of LDD1937 (dissolved in the same solution used in the intravenous study) were orally administered to the mice. The analysis of LDD1937 and LDD1940, a metabolite of LDD1937, in biological samples was done with LC-MS/MS using the Waters UPLC-XEVO TQ system (Waters Corporation, Milford, CT, USA). […]1940, and carbamazepine (an internal standard, IS) were ionized in the multiple reaction monitoring mode with an ESI interface for positive ions ([M+H]^+). The turbo ion-spray interface was operated at an ion capillary voltage of 3.0 kV with a desolvation gas flow of 650 l/h and a cone gas flow of 10 l/h at 350°C. […] Separation was done on a reverse-phase C18 column (BEH, […]; Waters, Ireland) with a mobile phase, distilled water containing 0.1% formic acid and acetonitrile, at 30°C. After measuring the concentrations of the LDD1937 and LDD1940, standard methods were used to calculate the pharmacokinetic parameters using a non-compartmental analysis (WinNonlin 2.1; […] Corp., Mountain View, CA, USA).

[2] = LDD1937, mice, 10 mg/kg intravenous
[3] = male, ICR, mouse, plasma, LDD1937, mice, 10 mg/kg intravenous
[4] = male, ICR, mouse, plasma, LDD1937, mice, 10 mg/kg oral

- IC50 (FLT3; Table 1, mean ± S.D., read-out: IC50 FLT3): 3 ± 0.525 nM
- IC50 (FLT3; recombinant FLT3, HTRF, read-out: IC50 FLT3 kinase activity): 3 ± 0.53 nM
- CLNR [1, 2]: 83.6 ± 9.81 mL/min/kg
- GI24 h (total amount recovered from the gastrointestinal tract at 24 h) [1, 2]: 0.336 ± 0.0235 % of dose
- Ae0–24 h ([1]; LDD1937, mice, 10 mg/kg oral): 0.213 ± 0.0163 % of dose
- GI24 h ([1]; LDD1937, mice, 10 mg/kg oral, 10 mg/kg): 1.67 % of dose and 1.67 ± 1.92 % of dose
- concentration at 10 h ([1]; male, ICR, mouse, plasma, 10 h after 10 mg/kg intravenous dosing, mice, read-out: plasma level): 30 ng/mL
- MRT [1, 3]: 2.77 h
- clearance [1, 3]: 83.6 ± 9.81 mL/min/kg
- AUC [1, 3]: 2000 ng·h/mL
- half-life [1, 3]: 2.9 ± 0.47 h
- Vd ([1]; male, ICR, mouse, plasma, LDD1937, mice, 10 mg/kg intravenous, read-out: Vss): 14.1 ± 4.31 L/kg
- bioavailability [1, 4]: 1.43%
- AUC [1, 4]: 29.8 ng·h/mL
- Cmax ([1]; male, ICR, mouse, plasma, LDD1937, mice, 10 mg/kg oral, read-out: Cmax): 23.3 ± 26.2 ng/mL
- half-life [1, 4]: 1.72 ± 0.542 h
- Tmax ([1]; male, ICR, mouse, plasma, LDD1937, mice, 10 mg/kg oral, read-out: Tmax (converted)): 0.5 h
- plasma concentration reached ([1]; single dose 10 mg/kg intravenous, mice): 2700 ng/mL
SMILES: COC(=O)c1ccc2c(c1)/C(=C1/Nc3ccccc3/C1=N\OCCN1CCNCC1)C(=O)N2.Cl.Cl [LDD1937, methyl (2Z,3E)-2′-oxo-3-((2-(piperazin-1-yl)ethoxy)imino)-[2,3′-biindolinylidene]-5′-carboxylate dihydrochloride]
- GI50 (PC-3 cells): 1100 ± 140 nM
- Ae0–24 h (total amount excreted in 24-h urine) ([1]; LDD1937, mice, 10 mg/kg intravenous, 10 mg/kg): 0.283 % of dose and 0.283 ± 0.0252 % of dose
